Earlier results on eight molecules are cited in patent US6562869B1, “Nutritional supplement for increased energy and stamina” (Juvenon, Inc., priority 1999, dated 2003).

Like-named read-outs stand apart in the source and are kept apart here.

Data set [1] has as its system oxidative phosphorylation in skeletal muscles and brains. The following applies: patients with mitochondrial cytopathies due to enzyme defects.
A further data set concerns male mice. The following applies: life-long supplementation.
Another data set has as its system striatal nerves. To be noted: Q10 diet four weeks before and one week after MPTP.
The subject of data set [2] is human plasma LDL phospholipids. The following applies: healthy Finnish men and women aged 28-77, supplementation.
For data set [3] the following is noted: daily up to 200 mg for 6 to 12 months and 100 mg daily for up to 6 years.
The next data set concerns apoptosis. To be noted: through its action in the mitochondria.
In a further data set the test system is senescent myocardium. The following applies: rats.
On the set-up of data set [4]: dose or concentration left out as unconfirmed. The following applies: woman deficient in Q10.
Data set [5] relates to carnitine-acyl-carnitine exchange across the inner mitochondrial membrane.
For the next data set, the system named is oxidant production. The following applies: carnitine supplementation.
For data set [6] the following is noted: men over 60, 5 days.
The conditions of data set [7]: older adults 67-80 years, 8 weeks.
The next data set concerns skeletal muscle. To be noted: older individuals aged 40-73, 20 g/day, one week.

In the case of `COC1=C(OC)C(=O)C(C/C=C(\C)CC/C=C(\C)CC/C=C(\C)CC/C=C(\C)CC/C=C(\C)CC/C=C(\C)CC/C=C(\C)CC/C=C(\C)CC/C=C(\C)CCC=C(C)C)=C(C)C1=O` [Example Q10, Coenzyme Q10], the heart functions entry in the data set with heart functions (old rats) is given as “improve heart functions”; in the data set on heart functions (young rats), “not significantly affect”. For the same molecule, in data set [1], the “oxidative phosphorylation in skeletal muscles and brains” value is reported as “marked improvement”. Moreover, the “Q10 levels in kidney, heart and brain” value in the data set on male rats (Q10 supplementation) is listed as “not affected”. Besides, the lifespan entry in the data set on male rats (life-long supplementation, rats) is listed as “did not prolong or shorten”; in the data set on male mice, “did not prolong or shorten”. Besides, the “plasma and liver Q10 levels” value in the data set on male rats (supplemented rats) is listed as 2.6-8.4 times higher. For the same molecule, the “dopamine, higher than control diet” value in the data set with striatal nerves is 37%. The “more dense neurons than control diet” value with striatal nerves is 62%. Moreover, the “peroxyl radical trapping capacity” value in data set [2] is recorded as “doubled”. In [3], the adverse effects entry is listed as “No important adverse effects”. The “programmed cell death, or apoptosis” value with apoptosis is listed as “appears to block”. The “tolerance of the senescent myocardium to aerobic and ischemic stress” value in the data set on human atrial tissue and in the data set on senescent myocardium was “improves the tolerance” in each case. In addition, the clinical response result in data set [4] was “rapidly improved”. In addition, the effects of doxorubicin entry in the data set on cardiac tissue (cardiac tissue) is recorded as “blocks the effects of doxorubicin”.

Take `C[N+](C)(C)C[C@H](O)CC(=O)[O-]` [L-carnitine]: the “age-related dysfunction of carnitine-acyl-carnitine exchange” value in [5] is given as “slow or reverse”.

As to `O=C(O)CCCC[C@@H]1CCSS1` [R-α-lipoic acid], the “ambulatory activity of aged rats” value in the data set with aged rats (aged rats) was “triple”. In addition, in the data set with aged rats (supplementation), the “age-related decline in mitochondrial membrane potential” value is on record as “restore”; the “age-related decrease in oxygen consumption” value was “reverse”; the “age-related increase in oxidants” value is recorded as “significantly lower”; the “glutathione and ascorbic acid levels” value is on record as “to youthful levels”.

For `CC(=O)O[C@H](CC(=O)[O-])C[N+](C)(C)C` [acetyl-L-carnitine], the “age-related dysfunction of carnitine-acyl-carnitine exchange” value in data set [5] is “slow or reverse”.

As to `C[N+](C)(C)CC(O)CC(=O)[O-]` (centres unmarked) [carnitine], in the data set with oxidant production, the cell antioxidants result is on record as “decreased cell antioxidants markedly” and the oxidant production increase is reported as 30%.

For the molecule `CN(CC(=O)O)C(=N)N` [creatine], the “isokinetic performance and body mass” value in [6] is “only small increases”. Moreover, in data set [6], the isometric strength result is reported as “no effect”. Also, in data set [7], the “1- and 12-repetitions maxima, effect of creatine supplementation” value is listed as “no beneficial effect”. Also, the time to exhaustion result in the data set with phosphocreatine (PCr) (both groups combined) was “increased”. The “resting PCr increase” value with phosphocreatine (PCr) (middle-aged group (50-year-olds), P<0.05) is 30%; with phosphocreatine (PCr) (young group (30-year-olds), P<0.05) it was 15%. Moreover, the “mean initial PCr resynthesis rate” value with phosphocreatine (PCr) (middle-aged group, P<0.05) is reported as “increased significantly”. Also, under “about 1.5 g/day to about 25 g/day for at least a year”, the safety result is “safe”. In addition, the adverse effects result (athletes, doses up to 75 grams a day for years, aside from weight gain) was “without known adverse effects”. Further, the “skeletal muscle strength and endurance” value in the data set with skeletal muscle is listed as “increased”.

Consider `COc1cccc2c1C(=O)c1c(O)c3c(c(O)c1C2=O)C[C@@](O)(C(=O)CO)C[C@@H]3O[C@H]1C[C@H](N)[C@H](O)[C@H](C)O1` [doxorubicin], for which the mitochondrial oxidant production result in the data set on cardiac tissue is given as “stimulates”. Also, the “mtDNA deletions in cardiac tissue” value in the data set with cardiac tissue (cardiac tissue) is on record as “marked increase”.

Take `COc1c(O)c(C)c(C/C=C(\C)CC/C=C(\C)CC/C=C(\C)CC/C=C(\C)CC/C=C(\C)CC/C=C(\C)CC/C=C(\C)CC/C=C(\C)CC/C=C(\C)CCC=C(C)C)c(O)c1OC` [ubiquinol-10]: the “oxidative damage to DNA of human lymphocytes” value in the data set with human lymphocytes is “appears to protect”.
